Reference: ChEMBL document CHEMBL6109155, “Discovery of Phenylacylpiperidine as Novel sEH Inhibitors through Scaffold Hopping of Natural Stilbene” (J Med Chem, 2025)
The source made the active and inactive calls. No cut-off for these calls is given here.

Experiments:
[1] = Oral bioavailability in Sprague-Dawley rat at 20 mg/kg measured for 24 hrs; type: ADME, organism-based; conditions: in vivo
Cytochrome P450 3A4 = Cytochrome P450 3A4 (Homo sapiens, UniProt P08684); test: Inhibition of CYP3A4 in human liver microsomes preincubated for 10 mins followed by NADPH addition measured after 3.5 mins by LC-MS/MS analysis; type: ADME, Microsome
Mus musculus [2] = test: Anti-inflammatory activity in CD-1 mouse model of cerulein-induced acute pancreatitis assessed as decrease in neutrophil infiltration in pancreas at 10 mg/kg, ip drug administered at 30 mins and 2.5 hrs post-first cerulein injection and measured after 6 hrs post-first cerulein injection by H and E staining based analysis; type: functional, organism-based; conditions: time 3.5-5.5 hrs
Mus musculus [3] = test: Anti-inflammatory activity in BALB/c mouse model of carrageenan-induced paw edema assessed as inhibition of paw swelling at 10 mg/kg, po measured up to 6 hrs relative to control; type: functional; conditions: Mus musculus, BALB/c
Mus musculus [4] = test: Anti-inflammatory activity in BALB/c mouse model of carrageenan-induced paw edema assessed as inhibition of paw swelling at 10 mg/kg, po measured after 6 hrs relative to control; type: functional
[5] = Half life in Sprague-Dawley rat at 20 mg/kg, po measured for 24 hrs; type: ADME, organism-based; conditions: in vivo
hERG = hERG (Homo sapiens, UniProt Q12809); test: Inhibition of hERG at 10 uM by whole-cell patch-clamp method relative to control; type: toxicity
Mus musculus [6] = test: (§1) Anti-inflammatory activity in CD-1 mouse model of cerulein-induced acute pancreatitis assessed as increase in ratio of plasma 8,9-EET/DHET level at 10 mg/kg, ip drug administered at 30 mins and 2.5 hrs post-first cerulein injection and measured after 6 hrs post-first cerulein injection (reference value: 69.8 to 77.3 %); type: functional; conditions: time 3.5-5.5 hrs
Rattus norvegicus [7] = test: Anti-inflammatory activity in Sprague-Dawley rat model of CFA-induced rheumatoid arthritis assessed as improvement in food intake at 10 mg/kg, po administered daily measured for 19 days; type: functional, organism-based; conditions: time 19.0 day
Rattus norvegicus [8] = test: Anti-inflammatory activity in Sprague-Dawley rat model of CFA-induced rheumatoid arthritis assessed as improvement in joint cavity at 10 mg/kg, po administered daily measured after 19 days by H and E staining based analysis; type: functional, organism-based; conditions: time 19.0 day
Rattus norvegicus [9] = test: Anti-inflammatory activity in Sprague-Dawley rat model of CFA-induced rheumatoid arthritis assessed as […] in new blood vessel formation in synovial tissue at 10 mg/kg, po administered daily measured after 19 days by H and E staining based analysis; type: functional, organism-based; conditions: time 19.0 day
[10] = In vivo inhibition of pancreatic sEH in CD-1 mouse model of cerulein-induced acute pancreatitis 10 mg/kg, ip drug administered at 30 mins and 2.5 hrs post-first cerulein injection and measured after 6 hrs post-first cerulein injection; type: functional; conditions: time 3.5-5.5 hrs
Mus musculus [11] = test: Anti-inflammatory activity in BALB/c mouse model of carrageenan-induced paw edema assessed as inhibition of paw swelling at 20 mg/kg, po measured for 0.5 hrs relative to control; type: functional; conditions: Mus musculus, BALB/c
[12] = Ratio of AUC (0 to 24 hrs) in liver to plasma in C57BL/6J mouse at 20 mg/kg, po measured for 24 hrs; type: ADME, organism-based; conditions: liver and plasma, read-out: Ratio AUC
[13] = AUC (0 to 24 hrs) in brain of C57BL/6J mouse at 20 mg/kg, po measured for 24 hrs; type: ADME, organism-based
Rattus norvegicus [14] = test: Anti-inflammatory activity in Sprague-Dawley rat model of CFA-induced rheumatoid arthritis assessed as BS value at 10 mg/kg, po administered daily measured after 19 days by micro-CT analysis (reference value: 636.014 mm2); type: functional; conditions: time 19 day
Cytochrome P450 2D6 = Cytochrome P450 2D6 (Homo sapiens, UniProt P10635); test: Inhibition of CYP2D6 in human liver microsomes preincubated for 10 mins followed by NADPH addition measured after 3.5 mins by LC-MS/MS analysis; type: ADME, Microsome
Rattus norvegicus [15] = test: Anti-inflammatory activity in Sprague-Dawley rat model of CFA-induced rheumatoid arthritis assessed as decrease in paw redness at 10 mg/kg, po administered daily measured after 7 days; type: functional, organism-based; conditions: time 7.0 day
[16] = Volume of distribution in Sprague-Dawley rat at 20 mg/kg, po measured for 24 hrs; type: ADME, organism-based; conditions: in vivo
Mus musculus [17] = test: Anti-inflammatory activity in BALB/c mouse model of carrageenan-induced paw edema assessed as inhibition of paw swelling at 1 mg/kg, po measured after 6 hrs relative to control; type: functional
Rattus norvegicus [18] = test: Anti-inflammatory activity in Sprague-Dawley rat model of CFA-induced rheumatoid arthritis assessed as decrease in swelling degree of left paw at 10 mg/kg, po administered daily measured after 16 to 19 days; type: functional, organism-based; conditions: time 16-19 day
RAW264.7 = test: Anti-inflammatory activity in LPS-indeced mouse RAW264.7 cells assessed as reduction in TNF-alpha level at 10 uM preincubated for 1 hr followed by LPS addition measured after 24 hrs by ELISA; type: functional, cell-based; conditions: time 25.0 hrs
[19] = target: T1, Bifunctional epoxide hydrolase 2 (Mus musculus, UniProt P34914); test: biochemical
T1 sequence (P34914 whole entry): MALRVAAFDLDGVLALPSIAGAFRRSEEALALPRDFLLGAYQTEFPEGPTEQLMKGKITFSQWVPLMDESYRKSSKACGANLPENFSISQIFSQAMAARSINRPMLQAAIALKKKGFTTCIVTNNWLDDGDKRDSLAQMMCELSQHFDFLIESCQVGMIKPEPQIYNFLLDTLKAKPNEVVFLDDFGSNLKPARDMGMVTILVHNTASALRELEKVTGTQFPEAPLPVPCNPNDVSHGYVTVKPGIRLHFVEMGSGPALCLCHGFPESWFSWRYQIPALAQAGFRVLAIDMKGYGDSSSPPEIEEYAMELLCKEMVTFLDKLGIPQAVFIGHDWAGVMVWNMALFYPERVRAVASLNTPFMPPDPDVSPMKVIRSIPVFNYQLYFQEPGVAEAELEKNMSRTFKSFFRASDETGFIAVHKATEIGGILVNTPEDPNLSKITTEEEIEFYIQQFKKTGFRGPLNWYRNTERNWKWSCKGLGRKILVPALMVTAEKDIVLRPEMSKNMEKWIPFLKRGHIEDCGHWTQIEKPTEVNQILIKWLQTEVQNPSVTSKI
Description: Inhibition of C57BL/6J mouse brain sEH using 14,15-EET as substrate preincubated for 15 mins followed by substrate addition by HPLC-MS analysis

[20] = Tmax in Sprague-Dawley rat at 5 mg/kg, iv measured for 24 hrs; type: ADME, organism-based; conditions: in vivo
[21] = Clearance in Sprague-Dawley rat at 5 mg/kg, iv measured for 24 hrs; type: ADME, organism-based; conditions: in vivo
Rattus norvegicus [22] = test: Anti-inflammatory activity in Sprague-Dawley rat model of CFA-induced rheumatoid arthritis assessed as increase in plasma 8,9-EET level at 10 mg/kg, po administered daily measured after 19 days relative to control; type: functional; conditions: time 19 day
Mus musculus [23] = test: Anti-inflammatory activity in BALB/c mouse model of carrageenan-induced paw edema assessed as inhibition of paw swelling at 1 mg/kg, po measured up to 6 hrs relative to control; type: functional
Mus musculus [24] = test: as §1, with “pancreatic EET/DHET” for “plasma 8,9-EET/DHET”, “23.5” for “69.8”, “41.7” for “77.3”; type: functional; conditions: time 3.5-5.5 hrs
Mus musculus [25] = test: Anti-inflammatory activity in CD-1 mouse model of cerulein-induced acute pancreatitis assessed as decrease in plasma IL-6 level at 10 mg/kg, ip drug administered at 30 mins and 2.5 hrs post-first cerulein injection and measured after 6 hrs post-first cerulein injection; type: functional, organism-based; conditions: time 3.5-5.5 hrs
[26] = Clearance in Sprague-Dawley rat at 20 mg/kg, po measured for 24 hrs; type: ADME, organism-based; conditions: in vivo

Sequence of hERG (Q12809 whole entry): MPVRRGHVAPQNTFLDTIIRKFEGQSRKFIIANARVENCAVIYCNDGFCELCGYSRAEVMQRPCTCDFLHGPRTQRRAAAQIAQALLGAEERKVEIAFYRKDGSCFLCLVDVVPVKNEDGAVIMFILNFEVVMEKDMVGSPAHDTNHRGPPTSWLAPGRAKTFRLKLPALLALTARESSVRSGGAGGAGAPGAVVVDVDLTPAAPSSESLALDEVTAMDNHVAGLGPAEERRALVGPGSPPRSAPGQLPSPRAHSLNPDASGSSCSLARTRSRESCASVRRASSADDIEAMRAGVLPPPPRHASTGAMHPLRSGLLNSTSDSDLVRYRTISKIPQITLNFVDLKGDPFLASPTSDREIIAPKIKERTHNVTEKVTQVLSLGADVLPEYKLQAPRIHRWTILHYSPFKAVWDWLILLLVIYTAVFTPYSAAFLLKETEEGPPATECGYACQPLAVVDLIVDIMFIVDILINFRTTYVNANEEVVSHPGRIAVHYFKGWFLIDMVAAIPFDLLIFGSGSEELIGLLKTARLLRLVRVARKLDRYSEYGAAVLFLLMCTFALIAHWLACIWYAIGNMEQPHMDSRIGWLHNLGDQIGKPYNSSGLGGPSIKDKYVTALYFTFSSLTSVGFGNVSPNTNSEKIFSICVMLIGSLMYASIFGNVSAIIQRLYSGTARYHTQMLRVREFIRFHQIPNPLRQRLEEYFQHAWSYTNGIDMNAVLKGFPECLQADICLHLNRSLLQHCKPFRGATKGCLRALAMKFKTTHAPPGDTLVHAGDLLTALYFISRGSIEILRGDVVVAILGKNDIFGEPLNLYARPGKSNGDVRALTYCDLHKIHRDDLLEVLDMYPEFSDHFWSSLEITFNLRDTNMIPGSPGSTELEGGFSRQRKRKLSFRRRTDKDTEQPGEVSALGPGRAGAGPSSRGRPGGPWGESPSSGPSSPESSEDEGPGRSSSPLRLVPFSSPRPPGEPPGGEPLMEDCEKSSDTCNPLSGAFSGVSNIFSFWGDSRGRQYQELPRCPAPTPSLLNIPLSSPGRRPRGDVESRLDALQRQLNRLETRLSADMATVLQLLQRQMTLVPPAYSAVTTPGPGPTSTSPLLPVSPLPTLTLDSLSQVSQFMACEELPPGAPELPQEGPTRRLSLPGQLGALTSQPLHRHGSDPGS
Sequence of Cytochrome P450 2D6 (P10635 whole entry): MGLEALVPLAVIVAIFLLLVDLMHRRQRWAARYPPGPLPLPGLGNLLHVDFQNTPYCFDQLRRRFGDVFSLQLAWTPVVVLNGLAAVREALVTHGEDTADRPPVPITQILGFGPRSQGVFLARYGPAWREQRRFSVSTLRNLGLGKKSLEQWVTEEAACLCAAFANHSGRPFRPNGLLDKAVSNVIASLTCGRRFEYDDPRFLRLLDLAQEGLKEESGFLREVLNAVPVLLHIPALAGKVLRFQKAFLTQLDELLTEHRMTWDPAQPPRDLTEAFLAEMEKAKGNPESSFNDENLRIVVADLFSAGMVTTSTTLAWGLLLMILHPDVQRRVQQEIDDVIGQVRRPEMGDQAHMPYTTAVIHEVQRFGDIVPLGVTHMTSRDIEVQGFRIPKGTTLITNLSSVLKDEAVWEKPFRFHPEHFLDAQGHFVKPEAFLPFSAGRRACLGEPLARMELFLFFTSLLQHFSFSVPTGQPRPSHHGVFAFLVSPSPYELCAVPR
Sequence of Cytochrome P450 3A4 (P08684 whole entry): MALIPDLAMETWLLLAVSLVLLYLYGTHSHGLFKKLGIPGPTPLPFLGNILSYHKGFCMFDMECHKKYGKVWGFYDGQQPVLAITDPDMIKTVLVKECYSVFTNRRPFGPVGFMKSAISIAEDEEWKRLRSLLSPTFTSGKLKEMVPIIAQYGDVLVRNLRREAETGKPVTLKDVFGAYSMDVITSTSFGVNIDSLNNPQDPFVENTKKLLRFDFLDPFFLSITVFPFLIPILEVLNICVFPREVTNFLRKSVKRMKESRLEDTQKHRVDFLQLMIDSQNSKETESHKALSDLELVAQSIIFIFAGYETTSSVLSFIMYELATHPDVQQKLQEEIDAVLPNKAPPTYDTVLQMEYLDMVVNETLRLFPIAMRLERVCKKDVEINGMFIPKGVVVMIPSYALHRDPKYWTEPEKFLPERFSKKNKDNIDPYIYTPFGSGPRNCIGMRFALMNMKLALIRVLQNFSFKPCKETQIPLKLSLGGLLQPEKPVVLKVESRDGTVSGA

COc1cc(CC(=O)N2CCC(NC(=O)NCc3ccc(OC(F)(F)F)cc3)CC2)cc(OC)c1
bioavailability [1]: 8.3%
IC50 (Cytochrome P450 3A4): 22.9 µM
Activity (Mus musculus [2]): Active
inhibition in vivo at 10 mg/kg (Mus musculus [3]): 38.8%
inhibition in vivo at 10 mg/kg (Mus musculus [4]): 20.8%
half-life [5]: 113 min
inhibition at 10 µM (hERG): 12.5%
Activity (Mus musculus [6]): 558%
Activity (Rattus norvegicus [7]): Active
Activity (Rattus norvegicus [8]): Active
Activity (Rattus norvegicus [9]): Active; Few Newly Formed Blood Vessels Was Observed
inhibition in vivo at 10 mg/kg [10]: 44.7%
inhibition in vivo at 20 mg/kg (Mus musculus [11]): 29.5%
Kp at 24 h [12]: 50.9
AUC(0-t) at 24 h [13]: 11 ng·h/mL
Activity (Rattus norvegicus [14]): 432.009 mm2
IC50 (Cytochrome P450 2D6): 46.8 µM
Activity (Rattus norvegicus [15]): Active
Vd [16]: 74.6 L/kg
inhibition in vivo at 1 mg/kg (Mus musculus [17]): 22%
Activity (Rattus norvegicus [18]): Active
Activity (RAW264.7): Active
IC50 [19]: 0.00051 µM
Tmax [20]: 4.8 min
clearance [21]: 38.8 mL/min/kg
Activity (Rattus norvegicus [22]): 105%
inhibition in vivo at 1 mg/kg (Mus musculus [23]): 34%
Activity (Mus musculus [24]): 311%
Activity (Mus musculus [25]): Active
CL/F [26]: 470 mL/min/kg
